Test results published in ChEMBL document CHEMBL1201862, “PubChem BioAssay data set” (2004).
Active and inactive are the calls of the source.

How the values were obtained:
[1] = target: T1, Alkaline phosphatase, tissue-nonspecific isozyme (Homo sapiens, UniProt P05186); test: TNAP enzyme inhibition by screening hits, dose response, selectivity assay for mouse IAP inhibitor project, biochemical, human TNAP, uHTS hits (AID 488906); format: functional
T1 sequence (P05186 whole entry): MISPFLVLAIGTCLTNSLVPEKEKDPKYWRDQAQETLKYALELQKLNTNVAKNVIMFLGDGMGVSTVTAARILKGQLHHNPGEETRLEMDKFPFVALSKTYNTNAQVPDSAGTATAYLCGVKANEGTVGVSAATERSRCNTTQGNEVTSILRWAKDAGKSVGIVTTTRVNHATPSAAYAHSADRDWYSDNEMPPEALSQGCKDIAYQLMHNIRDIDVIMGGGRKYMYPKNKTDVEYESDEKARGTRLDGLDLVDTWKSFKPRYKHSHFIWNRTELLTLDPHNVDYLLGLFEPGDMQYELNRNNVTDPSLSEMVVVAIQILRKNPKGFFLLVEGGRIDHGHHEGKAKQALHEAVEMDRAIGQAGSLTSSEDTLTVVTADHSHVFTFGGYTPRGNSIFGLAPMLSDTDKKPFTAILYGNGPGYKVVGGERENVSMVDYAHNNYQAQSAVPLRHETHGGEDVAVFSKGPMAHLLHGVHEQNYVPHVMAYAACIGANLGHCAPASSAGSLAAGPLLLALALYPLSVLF

[2] = target: Intestinal-type alkaline phosphatase (Mus musculus, UniProt P24822); test: PubChem AID 488785; format: functional
[3] = target: Intestinal-type alkaline phosphatase (Homo sapiens, UniProt P09923); test: inhibition of human intestinal alkaline phosphatase – biochemical, dose response (AID 488876); format: functional
[4] = Luminescence Cell-Based Dose Retest to Confirm Inhibitors of Cancer Stem Cells. [Related pubchem assays (depositor defined):AID2717, AID2721]; format: functional; conditions: Homo sapiens
[5] = target: T2, Ubiquitin-conjugating enzyme E2 N (Homo sapiens, UniProt P61088); format: functional;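 also: Dose-response confirmation in a TR-FRET assay detecting UBC13-driven polyubiquitin chain formation, inhibition measured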
T2 sequence (P61088 whole entry): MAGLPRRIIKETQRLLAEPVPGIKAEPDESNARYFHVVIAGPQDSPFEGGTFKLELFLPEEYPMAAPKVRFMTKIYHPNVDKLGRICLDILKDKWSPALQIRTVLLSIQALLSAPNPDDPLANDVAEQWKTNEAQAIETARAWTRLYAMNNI

[6] = blockade of melanocortin 4 receptor signaling – cell-based, plate reader, cherry pick, counter-screen for LGR2 antagonist project, dose response (AID 743444); format: functional;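 also: transfected HEK 293 cells stimulated with alpha-MSH peptide; potency of inhibitors of the alpha-MSH evoked signal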
[7] = target: T3, Endoribonuclease toxin MazF (Escherichia coli K-12, UniProt P0AE70); test: substrate-only fluorescence increase artefacts – biochemical, single-stranded RNase substrate, counter-screen for MazEF activator project, dose response (AID 588502); format: functional
T3 sequence (P0AE70 whole entry): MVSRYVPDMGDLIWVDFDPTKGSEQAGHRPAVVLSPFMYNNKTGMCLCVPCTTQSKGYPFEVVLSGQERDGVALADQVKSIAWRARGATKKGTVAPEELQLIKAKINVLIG

[8] = target: T3, Endoribonuclease toxin MazF; test: activation of MazEF endoribonuclease cleavage – biochemical, fluorescence, single-stranded RNA substrate, uHTS hits, dose response (AID 588481); format: functional
[9] = blockers of bursicon-stimulated LGR2 cAMP reporter – cell-based, HEK293, CRE-luciferase reporter, cherry pick, set 2, dose response (AID 743343); format: functional;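 also: transfected cells were stimulated with diluted bursicon conditioned medium after compound addition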
[10] = toxicity toward HepG2 liver cells – cell-based, plate reader, cherry-pick, antagonist series, cytotoxicity control, dose response (AID 743416); format: functional
[11] = viability loss in HEK293 cells – cell-based, plate reader, cherry-picked samples, cytotoxicity control, dose response (AID 743446); format: functional
[12] = A549 cell cytotoxicity, dose response, cytotoxicity control, plate reader, cherry-pick, antagonist series (AID 743412); format: functional, cell-based
[13] = target: T4, Lysine-specific demethylase 4C (Homo sapiens, UniProt Q9H3R0); test: inhibition of JMJD2C H3K9me3 demethylation – biochemical, DELFIA europium, cherry-picked samples, dose response (AID 488835); format: functional
T4 sequence (Q9H3R0 whole entry): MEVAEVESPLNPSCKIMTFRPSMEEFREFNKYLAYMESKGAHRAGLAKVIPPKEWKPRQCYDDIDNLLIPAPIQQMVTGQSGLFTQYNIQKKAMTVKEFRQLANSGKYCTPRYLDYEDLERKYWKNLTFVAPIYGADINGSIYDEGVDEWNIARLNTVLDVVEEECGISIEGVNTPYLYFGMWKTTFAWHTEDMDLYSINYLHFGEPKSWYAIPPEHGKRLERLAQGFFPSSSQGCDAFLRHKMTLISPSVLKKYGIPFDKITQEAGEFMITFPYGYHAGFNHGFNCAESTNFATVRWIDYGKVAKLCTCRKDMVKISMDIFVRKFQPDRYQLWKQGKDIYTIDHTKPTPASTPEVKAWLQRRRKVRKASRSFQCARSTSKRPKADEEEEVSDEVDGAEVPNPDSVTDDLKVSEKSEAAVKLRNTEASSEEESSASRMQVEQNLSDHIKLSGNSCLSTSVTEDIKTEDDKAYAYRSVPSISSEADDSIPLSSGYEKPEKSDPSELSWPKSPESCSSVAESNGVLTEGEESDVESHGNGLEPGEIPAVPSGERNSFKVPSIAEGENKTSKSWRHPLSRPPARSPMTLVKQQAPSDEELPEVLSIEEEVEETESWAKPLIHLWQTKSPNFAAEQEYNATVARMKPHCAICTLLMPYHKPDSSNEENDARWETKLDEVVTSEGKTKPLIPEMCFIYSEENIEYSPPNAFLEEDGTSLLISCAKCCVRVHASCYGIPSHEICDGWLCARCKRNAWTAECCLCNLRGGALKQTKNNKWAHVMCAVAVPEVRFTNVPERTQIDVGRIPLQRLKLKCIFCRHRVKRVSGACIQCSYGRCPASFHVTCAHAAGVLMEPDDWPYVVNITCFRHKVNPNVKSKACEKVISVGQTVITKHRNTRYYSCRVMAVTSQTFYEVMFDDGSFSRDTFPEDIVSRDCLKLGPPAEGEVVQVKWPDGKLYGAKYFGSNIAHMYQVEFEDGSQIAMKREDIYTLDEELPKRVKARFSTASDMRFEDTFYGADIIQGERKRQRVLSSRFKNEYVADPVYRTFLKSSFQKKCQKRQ

[14] = target: T1, Alkaline phosphatase, tissue-nonspecific isozyme; test: potency against alkaline phosphatase TNAP – biochemical, luminescent, dose response, SAR follow-up (AID 1056)
[15] = target: Glyceraldehyde-3-phosphate dehydrogenase (Homo sapiens, UniProt P04406)
[16] = Trypanosoma cruzi growth suppression in host cells – NIH3T3 host cells, beta-gal luminescence, confirmation (AID 2044); format: functional, cell-based;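 also: intracellular parasites grown in NIH/3T3 mouse fibroblasts as host cells; luminescent beta-galactosidase reporter signal from transgenic T. cruzi replicating inside host cells; inhibitors lower the luminescence signal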
[17] = NIH3T3 cell viability loss – ATP luminescence, mouse fibroblasts, counter-screen, dose response (AID 2010); format: functional, cell-based;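 also: cells exposed to compound for about 90 hours before reading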
[18] = viability loss of HMLE_sh_eGFP cells – cell-based, luminescence, counter-screen for HMLE_sh_ECad selective toxicity project, dose response (AID 463074); format: functional, Homo sapiens;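 also: HMLE human mammary epithelial cells expressing control shRNA against eGFP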
H9c2 = test: cells; format: functional, cell-based; conditions: Rattus norvegicus, H9c2, Myocardium;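 also: confirmatory concentration-response retest of ultra-high-throughput screening hits for modulation of myocardial damage; cell death induced by hydrogen peroxide oxidative stress; compound pretreatment for 60 min then peroxide exposure for 2 h; potency is for protecting the cells against peroxide damage rather than for killing them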
SUMO E1/E2 = SUMO E1/E2 (Homo sapiens, UniProt P63279+Q9UBE0+Q9UBT2); test: SAR analysis of SUMOylation using HTRF in an in-Vitro dose response assay. [Related pubchem assays (depositor defined):AID2006, AID2011, AID2018, AID2069, AID2658]; format: functional
Hexokinase HKDC1 = target: T5, Hexokinase HKDC1 (Homo sapiens, UniProt Q2TB90); test: activation of HKDC1 glucose phosphorylation – biochemical, W721R variant, dose response (AID 504730); format: functional
T5 sequence (Q2TB90 whole entry): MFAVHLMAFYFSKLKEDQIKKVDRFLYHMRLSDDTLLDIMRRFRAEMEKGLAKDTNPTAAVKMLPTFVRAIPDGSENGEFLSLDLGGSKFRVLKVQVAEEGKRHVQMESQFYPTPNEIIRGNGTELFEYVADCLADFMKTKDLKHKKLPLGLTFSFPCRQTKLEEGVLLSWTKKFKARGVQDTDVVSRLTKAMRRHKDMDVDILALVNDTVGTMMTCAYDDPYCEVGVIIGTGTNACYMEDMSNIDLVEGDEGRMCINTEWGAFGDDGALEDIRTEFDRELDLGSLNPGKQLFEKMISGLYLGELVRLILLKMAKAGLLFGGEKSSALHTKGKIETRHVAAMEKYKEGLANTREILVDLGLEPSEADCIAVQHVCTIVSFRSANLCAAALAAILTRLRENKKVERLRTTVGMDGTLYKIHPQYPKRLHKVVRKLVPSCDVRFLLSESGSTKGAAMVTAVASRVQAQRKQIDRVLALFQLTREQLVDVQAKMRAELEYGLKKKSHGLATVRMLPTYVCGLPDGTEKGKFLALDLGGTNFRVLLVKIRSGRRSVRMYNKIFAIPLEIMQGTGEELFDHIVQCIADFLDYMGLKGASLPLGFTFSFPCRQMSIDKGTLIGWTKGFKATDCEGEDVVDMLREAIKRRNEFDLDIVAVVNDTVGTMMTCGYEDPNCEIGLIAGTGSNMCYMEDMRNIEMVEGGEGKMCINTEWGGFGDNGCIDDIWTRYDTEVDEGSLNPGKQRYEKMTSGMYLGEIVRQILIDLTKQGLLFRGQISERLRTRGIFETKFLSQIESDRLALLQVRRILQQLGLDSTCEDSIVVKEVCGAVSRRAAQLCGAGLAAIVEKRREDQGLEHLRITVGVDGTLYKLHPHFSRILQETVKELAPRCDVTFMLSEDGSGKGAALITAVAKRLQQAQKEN

[19] = target: Heat shock protein HSP 90-alpha (Homo sapiens, UniProt P07900); format: functional, organism-based
Hexokinase-1 = target: T6, Hexokinase-1 (Homo sapiens, UniProt P19367); test: HK1 enzyme activation by HKDC1 hits – biochemical, selectivity assay for HKDC1 activator project, dose response (AID 504762); format: functional
T6 sequence (P19367 whole entry): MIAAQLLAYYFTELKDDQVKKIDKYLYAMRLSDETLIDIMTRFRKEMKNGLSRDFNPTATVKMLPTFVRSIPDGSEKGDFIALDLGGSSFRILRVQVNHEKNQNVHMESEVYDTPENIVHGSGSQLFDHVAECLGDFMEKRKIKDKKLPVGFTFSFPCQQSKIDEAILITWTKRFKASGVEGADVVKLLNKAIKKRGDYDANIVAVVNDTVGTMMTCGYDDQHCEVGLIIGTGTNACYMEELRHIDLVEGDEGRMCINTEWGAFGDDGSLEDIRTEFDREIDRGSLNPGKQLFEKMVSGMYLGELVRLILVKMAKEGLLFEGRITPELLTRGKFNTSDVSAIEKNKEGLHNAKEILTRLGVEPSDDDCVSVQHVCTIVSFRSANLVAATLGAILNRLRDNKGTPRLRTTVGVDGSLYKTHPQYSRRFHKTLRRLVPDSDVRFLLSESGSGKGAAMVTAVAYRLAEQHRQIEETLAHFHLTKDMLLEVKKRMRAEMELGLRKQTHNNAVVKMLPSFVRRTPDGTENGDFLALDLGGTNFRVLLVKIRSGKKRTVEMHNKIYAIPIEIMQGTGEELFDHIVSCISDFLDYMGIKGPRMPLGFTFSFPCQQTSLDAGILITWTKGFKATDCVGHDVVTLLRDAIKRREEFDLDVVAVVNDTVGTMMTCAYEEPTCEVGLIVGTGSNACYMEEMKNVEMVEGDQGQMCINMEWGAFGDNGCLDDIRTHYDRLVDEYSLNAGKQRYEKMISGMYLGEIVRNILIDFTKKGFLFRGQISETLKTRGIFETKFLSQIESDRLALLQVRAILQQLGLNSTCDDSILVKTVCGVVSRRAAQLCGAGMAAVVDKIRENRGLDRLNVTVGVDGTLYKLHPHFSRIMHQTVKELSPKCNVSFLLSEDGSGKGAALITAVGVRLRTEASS

Nonstructural protein 1 = Nonstructural protein 1 (Influenza A virus, UniProt Q194T2); format: functional, Influenza A virus (A/California/07/2009(H1N1))
Chain of Nonstructural protein 1 (Q194T2 whole entry): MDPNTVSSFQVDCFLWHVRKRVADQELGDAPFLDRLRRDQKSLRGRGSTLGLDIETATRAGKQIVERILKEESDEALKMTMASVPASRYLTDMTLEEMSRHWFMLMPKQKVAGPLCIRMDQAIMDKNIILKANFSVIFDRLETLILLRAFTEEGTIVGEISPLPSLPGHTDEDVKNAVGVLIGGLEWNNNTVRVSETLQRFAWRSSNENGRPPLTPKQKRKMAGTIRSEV

Chain of Intestinal-type alkaline phosphatase (Homo sapiens, UniProt P09923) (P09923 whole entry): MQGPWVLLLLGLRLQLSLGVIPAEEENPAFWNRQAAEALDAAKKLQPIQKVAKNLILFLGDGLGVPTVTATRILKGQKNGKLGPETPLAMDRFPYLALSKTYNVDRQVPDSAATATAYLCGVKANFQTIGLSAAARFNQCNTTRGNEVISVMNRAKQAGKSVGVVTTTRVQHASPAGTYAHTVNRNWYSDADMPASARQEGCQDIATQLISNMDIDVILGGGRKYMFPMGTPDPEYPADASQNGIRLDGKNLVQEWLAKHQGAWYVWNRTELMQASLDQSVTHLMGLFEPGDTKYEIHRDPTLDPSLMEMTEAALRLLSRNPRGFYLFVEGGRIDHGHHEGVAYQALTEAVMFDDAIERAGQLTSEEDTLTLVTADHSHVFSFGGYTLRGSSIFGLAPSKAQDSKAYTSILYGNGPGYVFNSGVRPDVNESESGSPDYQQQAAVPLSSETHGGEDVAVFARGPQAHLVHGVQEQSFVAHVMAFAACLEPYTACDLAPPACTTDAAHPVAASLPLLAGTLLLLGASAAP
Chain of Glyceraldehyde-3-phosphate dehydrogenase (P04406 whole entry): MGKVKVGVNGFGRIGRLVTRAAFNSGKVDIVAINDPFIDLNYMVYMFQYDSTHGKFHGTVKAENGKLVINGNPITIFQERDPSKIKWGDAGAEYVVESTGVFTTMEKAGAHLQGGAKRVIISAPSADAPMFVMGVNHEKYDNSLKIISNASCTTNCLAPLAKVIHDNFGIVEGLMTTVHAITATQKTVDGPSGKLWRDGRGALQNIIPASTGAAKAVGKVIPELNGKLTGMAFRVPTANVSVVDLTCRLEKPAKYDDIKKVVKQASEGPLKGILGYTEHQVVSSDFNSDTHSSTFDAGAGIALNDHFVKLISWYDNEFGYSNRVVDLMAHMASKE
Chain of Intestinal-type alkaline phosphatase (Mus musculus, UniProt P24822) (P24822 whole entry): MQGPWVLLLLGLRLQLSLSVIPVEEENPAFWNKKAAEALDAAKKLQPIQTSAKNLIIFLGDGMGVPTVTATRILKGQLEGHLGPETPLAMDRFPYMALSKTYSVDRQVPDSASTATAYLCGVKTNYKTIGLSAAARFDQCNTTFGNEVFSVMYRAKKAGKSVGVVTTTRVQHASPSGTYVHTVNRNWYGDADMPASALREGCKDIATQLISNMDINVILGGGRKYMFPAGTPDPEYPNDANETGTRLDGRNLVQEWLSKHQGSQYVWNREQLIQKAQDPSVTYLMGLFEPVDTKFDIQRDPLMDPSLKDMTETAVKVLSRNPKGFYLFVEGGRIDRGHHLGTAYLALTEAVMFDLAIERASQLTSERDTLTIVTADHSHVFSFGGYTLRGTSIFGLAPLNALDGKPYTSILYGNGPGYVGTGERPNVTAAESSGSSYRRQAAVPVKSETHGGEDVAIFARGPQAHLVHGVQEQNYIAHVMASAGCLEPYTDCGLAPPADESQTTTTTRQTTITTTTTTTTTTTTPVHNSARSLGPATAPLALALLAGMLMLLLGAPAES
Chain of SUMO E1/E2 (Q9UBE0 whole entry): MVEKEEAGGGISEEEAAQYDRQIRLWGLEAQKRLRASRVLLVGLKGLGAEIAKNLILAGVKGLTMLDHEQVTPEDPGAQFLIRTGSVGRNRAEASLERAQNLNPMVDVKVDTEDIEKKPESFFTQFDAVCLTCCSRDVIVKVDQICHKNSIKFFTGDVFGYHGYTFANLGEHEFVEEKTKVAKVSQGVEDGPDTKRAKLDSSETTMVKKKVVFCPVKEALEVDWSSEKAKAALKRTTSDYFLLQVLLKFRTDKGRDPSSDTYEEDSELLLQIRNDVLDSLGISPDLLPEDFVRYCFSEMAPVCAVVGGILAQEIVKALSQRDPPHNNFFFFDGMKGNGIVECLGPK
Chain of SUMO E1/E2 (Q9UBT2 whole entry): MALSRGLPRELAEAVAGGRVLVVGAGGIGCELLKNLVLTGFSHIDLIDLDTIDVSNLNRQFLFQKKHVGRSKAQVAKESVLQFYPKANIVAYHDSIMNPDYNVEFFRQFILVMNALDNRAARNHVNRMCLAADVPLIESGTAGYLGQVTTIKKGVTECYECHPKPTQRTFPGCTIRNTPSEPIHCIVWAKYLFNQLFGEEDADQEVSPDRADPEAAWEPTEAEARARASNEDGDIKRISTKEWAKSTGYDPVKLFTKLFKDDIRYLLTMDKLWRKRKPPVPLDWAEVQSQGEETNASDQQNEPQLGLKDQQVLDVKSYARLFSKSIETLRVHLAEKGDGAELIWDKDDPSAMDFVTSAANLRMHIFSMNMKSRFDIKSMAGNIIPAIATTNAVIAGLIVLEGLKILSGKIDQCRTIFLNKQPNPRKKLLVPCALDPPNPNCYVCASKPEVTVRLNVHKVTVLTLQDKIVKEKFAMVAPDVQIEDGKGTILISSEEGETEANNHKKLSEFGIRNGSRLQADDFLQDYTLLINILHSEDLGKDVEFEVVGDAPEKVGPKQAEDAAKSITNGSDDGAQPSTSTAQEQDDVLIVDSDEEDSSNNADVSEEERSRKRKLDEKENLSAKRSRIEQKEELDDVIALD
Chain of SUMO E1/E2 (P63279 whole entry): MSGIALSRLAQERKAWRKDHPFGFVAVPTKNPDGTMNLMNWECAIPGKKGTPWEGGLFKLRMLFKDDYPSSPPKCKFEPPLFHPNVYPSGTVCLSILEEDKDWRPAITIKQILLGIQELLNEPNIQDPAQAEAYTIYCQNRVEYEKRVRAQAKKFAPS

Cc1ccc(NC(=S)NCc2ccccc2)cc1S(=O)(=O)N1CCCCC1
IC50 [1]: > 100 µM (inactive)
IC50 [2]: 1.4 µM (active)
IC50 [3]: > 100 µM (inactive)

O=C(Nc1ccc(Cl)c(C(F)(F)F)c1)NC1CC2CCCC(C1)N2Cc1ccccc1 (configuration not stated)
AC50 [4]: 6.55 µM (active)
IC50 [5]: > 20 µM (inactive)
AC50 [6]: 33.5 µM (active)
EC50 [7]: > 99 µM (inactive)
EC50 [8]: > 99 µM (inactive)
IC50 [1]: > 100 µM (inactive)
AC50 [9]: 39 µM (active)
AC50 [10]: 12.6 µM (active)
IC50 [2]: 11.2 µM (active)
AC50 [11]: 29.6 µM (active)
AC50 [12]: 11.4 µM (active)
IC50 [3]: > 100 µM (inactive)

CN1C(=O)C(=Cc2ccc(N3CCCCCC3)cc2)C(=O)N(C)C1=O
AC50 [13]: 13.1 µM (active)

CCOc1ccc(OCC)c(S(=O)(=O)Nc2cccnc2)c1
IC50 [14]: 4.44 µM (active)
IC50 [15]: > 100 µM (not active)

COc1ccc(C(=O)CCN2CCN(c3ccccc3F)CC2)cc1
EC50 [16]: 2.19 µM (active)
AC50 [4]: 17.2 µM (active)
EC50 [17]: 7.83 µM (active)
AC50 [18]: 35.3 µM (active)

COc1ccc(-c2nn3c(-c4ccco4)nnc3s2)cc1OC
AC50 [13]: 10.3 µM (active)
IC50 (H9c2): 11.2 µM (active)

O=C(O)c1cc(-c2ccc(F)cc2)n[nH]1
IC50 [14]: 4.74 µM (active)
IC50 [15]: > 100 µM (not active)

C/C(=N\OCc1nc2ccccc2c(=O)n1/N=C/c1cc(Br)ccc1O)c1ccccc1
IC50 (SUMO E1/E2): 14.7 µM (active)

CC(=NNC(=S)N1CC2CCC(CC2)C1)c1ccncn1
EC50 (Hexokinase HKDC1): 13.3 µM (active)
AC50 [19]: 3.03 µM (active)
EC50 (Hexokinase-1): > 80 µM (inactive)
IC50 (Nonstructural protein 1): 3.98 µM (active)

O=C(O)c1ccc2c(c1)C1C=CCC1C(c1ccccc1)N2 (configuration not stated)
IC50 (SUMO E1/E2): > 100 µM (inactive)
